Measured values published in ChEMBL document CHEMBL2434914 (Bioorg Med Chem Lett, 2013).

Legend:
[1] = Cytotoxicity against human MM1S cells after 48 hrs by ATPlite assay; format: functional, cell-based; conditions: MM1.S
[2] = biological target: T1, Protein deacetylase HDAC6 (Homo sapiens, UniProt Q9UBN7); test: Inhibition of HDAC6 (unknown origin) using MAZ1600 and MAZ1675 as substrate assessed as fluorogenic release of 7-amino-4-methylcoumarin from substrate by optimized homogenous assay
T1 sequence (Q9UBN7 whole entry): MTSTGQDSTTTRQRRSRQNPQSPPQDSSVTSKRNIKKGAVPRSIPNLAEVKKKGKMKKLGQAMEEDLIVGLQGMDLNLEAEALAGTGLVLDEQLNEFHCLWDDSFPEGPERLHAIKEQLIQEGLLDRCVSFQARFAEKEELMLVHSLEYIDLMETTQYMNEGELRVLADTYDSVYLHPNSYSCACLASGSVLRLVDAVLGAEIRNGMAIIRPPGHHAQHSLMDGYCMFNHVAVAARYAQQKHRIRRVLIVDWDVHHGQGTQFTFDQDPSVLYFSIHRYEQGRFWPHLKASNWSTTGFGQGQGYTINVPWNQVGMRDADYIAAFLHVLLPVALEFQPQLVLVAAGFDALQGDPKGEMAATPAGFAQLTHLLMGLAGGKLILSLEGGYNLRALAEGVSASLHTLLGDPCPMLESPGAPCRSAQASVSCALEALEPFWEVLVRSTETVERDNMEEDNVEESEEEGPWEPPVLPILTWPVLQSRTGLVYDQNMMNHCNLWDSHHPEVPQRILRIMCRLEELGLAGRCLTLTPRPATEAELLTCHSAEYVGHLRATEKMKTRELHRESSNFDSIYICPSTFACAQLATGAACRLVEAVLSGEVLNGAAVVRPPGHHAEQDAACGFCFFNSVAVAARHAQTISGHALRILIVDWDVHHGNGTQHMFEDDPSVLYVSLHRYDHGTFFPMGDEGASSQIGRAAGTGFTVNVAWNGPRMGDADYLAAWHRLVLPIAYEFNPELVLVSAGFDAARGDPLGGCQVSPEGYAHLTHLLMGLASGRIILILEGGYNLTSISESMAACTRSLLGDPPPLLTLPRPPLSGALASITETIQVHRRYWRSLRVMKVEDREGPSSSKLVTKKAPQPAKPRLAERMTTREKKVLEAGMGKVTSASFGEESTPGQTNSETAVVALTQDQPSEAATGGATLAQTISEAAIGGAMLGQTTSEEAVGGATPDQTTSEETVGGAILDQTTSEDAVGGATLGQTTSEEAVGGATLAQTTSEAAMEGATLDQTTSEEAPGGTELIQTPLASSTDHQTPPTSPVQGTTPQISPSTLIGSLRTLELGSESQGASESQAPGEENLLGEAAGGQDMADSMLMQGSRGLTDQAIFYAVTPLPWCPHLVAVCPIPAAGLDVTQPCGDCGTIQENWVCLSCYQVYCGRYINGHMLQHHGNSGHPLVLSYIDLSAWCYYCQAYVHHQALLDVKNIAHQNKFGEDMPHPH

[3] = biological target: Histone deacetylase 3 (Homo sapiens, UniProt O15379); test: Inhibition of HDAC3 (unknown origin) using MAZ1600 and MAZ1675 as substrate assessed as fluorogenic release of 7-amino-4-methylcoumarin from substrate by optimized homogenous assay
Histone deacetylase 3, sequence (O15379 whole entry): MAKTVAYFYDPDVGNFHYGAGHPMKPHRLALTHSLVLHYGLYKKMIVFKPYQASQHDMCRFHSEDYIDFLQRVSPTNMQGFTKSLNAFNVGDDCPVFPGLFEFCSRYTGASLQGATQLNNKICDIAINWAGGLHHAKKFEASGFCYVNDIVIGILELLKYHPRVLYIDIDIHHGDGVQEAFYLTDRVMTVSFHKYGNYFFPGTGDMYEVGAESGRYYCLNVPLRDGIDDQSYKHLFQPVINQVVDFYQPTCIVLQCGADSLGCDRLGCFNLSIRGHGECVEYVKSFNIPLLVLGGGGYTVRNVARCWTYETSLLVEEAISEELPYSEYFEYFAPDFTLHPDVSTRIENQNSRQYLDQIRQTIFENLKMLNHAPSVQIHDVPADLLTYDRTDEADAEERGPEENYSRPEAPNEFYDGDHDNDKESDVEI

[4] = biological target: Histone deacetylase 2 (Homo sapiens, UniProt Q92769); test: Inhibition of HDAC2 (unknown origin) using MAZ1600 and MAZ1675 as substrate assessed as fluorogenic release of 7-amino-4-methylcoumarin from substrate by optimized homogenous assay
Histone deacetylase 2, sequence (Q92769 whole entry): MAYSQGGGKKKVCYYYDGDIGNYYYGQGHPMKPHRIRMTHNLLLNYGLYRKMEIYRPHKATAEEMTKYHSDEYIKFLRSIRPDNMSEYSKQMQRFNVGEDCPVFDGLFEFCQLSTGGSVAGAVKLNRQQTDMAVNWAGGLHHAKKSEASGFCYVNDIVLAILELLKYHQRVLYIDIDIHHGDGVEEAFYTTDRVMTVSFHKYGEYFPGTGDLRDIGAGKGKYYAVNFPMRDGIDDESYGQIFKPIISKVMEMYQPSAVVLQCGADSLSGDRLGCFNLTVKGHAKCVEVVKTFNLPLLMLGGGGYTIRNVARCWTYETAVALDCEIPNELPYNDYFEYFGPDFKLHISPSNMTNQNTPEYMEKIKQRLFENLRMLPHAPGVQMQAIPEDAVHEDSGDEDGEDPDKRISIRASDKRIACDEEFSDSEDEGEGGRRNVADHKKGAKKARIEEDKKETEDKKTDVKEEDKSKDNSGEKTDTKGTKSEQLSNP

[5] = biological target: Histone deacetylase 1 (Homo sapiens, UniProt Q13547); test: Inhibition of HDAC1 (unknown origin) using MAZ1600 and MAZ1675 as substrate assessed as fluorogenic release of 7-amino-4-methylcoumarin from substrate by optimized homogenous assay
Histone deacetylase 1, sequence (Q13547 whole entry): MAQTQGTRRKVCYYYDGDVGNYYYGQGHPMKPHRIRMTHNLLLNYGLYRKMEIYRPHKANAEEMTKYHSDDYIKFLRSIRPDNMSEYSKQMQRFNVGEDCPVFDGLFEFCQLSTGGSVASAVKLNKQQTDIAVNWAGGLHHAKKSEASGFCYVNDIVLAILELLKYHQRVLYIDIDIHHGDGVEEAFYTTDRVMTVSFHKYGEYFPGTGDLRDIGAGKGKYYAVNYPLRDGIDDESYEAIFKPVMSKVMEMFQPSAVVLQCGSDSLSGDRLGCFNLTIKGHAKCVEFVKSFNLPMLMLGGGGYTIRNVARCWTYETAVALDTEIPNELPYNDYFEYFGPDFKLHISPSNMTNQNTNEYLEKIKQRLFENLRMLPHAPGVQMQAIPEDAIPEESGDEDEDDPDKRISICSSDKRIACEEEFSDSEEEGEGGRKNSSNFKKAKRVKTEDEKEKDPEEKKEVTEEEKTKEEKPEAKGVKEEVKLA

[6] = biological target: T2, Histone deacetylase 8 (Homo sapiens, UniProt Q9BY41); test: Inhibition of HDAC8 (unknown origin) using MAZ1600 and MAZ1675 as substrate assessed as fluorogenic release of 7-amino-4-methylcoumarin from substrate by optimized homogenous assay
T2 sequence (Q9BY41 whole entry): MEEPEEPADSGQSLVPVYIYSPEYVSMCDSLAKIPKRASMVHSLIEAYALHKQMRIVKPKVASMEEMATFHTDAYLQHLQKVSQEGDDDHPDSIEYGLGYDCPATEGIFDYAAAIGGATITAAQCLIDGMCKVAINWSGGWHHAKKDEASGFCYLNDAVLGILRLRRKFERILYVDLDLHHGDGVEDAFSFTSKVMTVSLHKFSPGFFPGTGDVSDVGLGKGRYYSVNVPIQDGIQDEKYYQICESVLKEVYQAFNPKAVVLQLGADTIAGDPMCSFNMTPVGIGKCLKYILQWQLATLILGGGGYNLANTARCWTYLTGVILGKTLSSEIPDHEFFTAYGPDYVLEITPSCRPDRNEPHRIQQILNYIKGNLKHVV

[7] = biological target: T3, Histone deacetylase 7 (Homo sapiens, UniProt Q8WUI4); test: Inhibition of HDAC7 (unknown origin) using MAZ1600 and MAZ1675 as substrate assessed as fluorogenic release of 7-amino-4-methylcoumarin from substrate by optimized homogenous assay
T3 sequence (Q8WUI4 whole entry): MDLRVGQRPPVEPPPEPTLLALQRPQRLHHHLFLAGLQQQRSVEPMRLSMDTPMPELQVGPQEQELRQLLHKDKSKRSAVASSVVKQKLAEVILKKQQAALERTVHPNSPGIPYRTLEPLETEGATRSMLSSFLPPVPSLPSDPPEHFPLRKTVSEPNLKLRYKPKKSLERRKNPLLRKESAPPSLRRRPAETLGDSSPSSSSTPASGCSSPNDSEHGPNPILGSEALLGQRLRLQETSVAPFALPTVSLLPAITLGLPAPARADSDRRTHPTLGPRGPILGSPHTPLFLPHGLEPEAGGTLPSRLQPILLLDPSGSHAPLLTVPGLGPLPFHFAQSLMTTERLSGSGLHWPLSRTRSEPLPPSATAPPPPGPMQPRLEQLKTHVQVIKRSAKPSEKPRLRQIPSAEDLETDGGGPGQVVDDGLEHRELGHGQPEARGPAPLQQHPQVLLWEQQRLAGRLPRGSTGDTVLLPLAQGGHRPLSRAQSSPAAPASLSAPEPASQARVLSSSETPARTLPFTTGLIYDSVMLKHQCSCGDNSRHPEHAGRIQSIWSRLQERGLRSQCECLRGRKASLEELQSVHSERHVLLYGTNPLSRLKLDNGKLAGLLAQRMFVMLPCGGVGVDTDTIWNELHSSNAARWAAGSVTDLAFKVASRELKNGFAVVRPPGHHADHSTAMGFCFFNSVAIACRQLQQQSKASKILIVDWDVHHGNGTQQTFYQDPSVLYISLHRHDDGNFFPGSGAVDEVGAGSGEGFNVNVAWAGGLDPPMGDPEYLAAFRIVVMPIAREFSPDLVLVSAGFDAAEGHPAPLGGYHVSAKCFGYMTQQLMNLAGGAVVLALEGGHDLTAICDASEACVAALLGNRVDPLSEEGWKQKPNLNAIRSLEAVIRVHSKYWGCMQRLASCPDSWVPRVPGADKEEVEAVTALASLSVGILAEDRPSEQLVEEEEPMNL

IC50 [2] [nM] | IC50 [3] [nM] | IC50 [4] [nM] | IC50 [5] [nM] | IC50 [6] [nM] | IC50 [7] [nM] | Structure (SMILES) | IC50 [1] [nM]
1100 | 1900 | 2100 | 950 |  |  | CCCCCCCC(=O)SCC/C=C/[C@@H]1CC(=O)NCc2nc(co2)C2=N[C@@](C)(CS2)C(=O)N[C@@H](C(C)C)C(=O)O1 | 120
98 | 7.2 | 20 | 4.4 | 1200 | 960 | CC(C)[C@@H]1NC(=O)[C@]2(C)CSC(=N2)c2coc(n2)CNC(=O)C[C@@H](/C=C/CCS)OC1=O | 6200

Structure (SMILES) | IC50 [2] [nM] | IC50 [3] [nM] | IC50 [4] [nM] | IC50 [5] [nM] | IC50 [6] [nM] | IC50 [7] [nM] | IC50 [1] [nM]
CC(C)[C@@H]1NC(=O)[C@]2(C)CSC(=N2)c2coc(n2)CNC(=O)C[C@@H](/C=C/CCSSCC/C=C/[C@@H]2CC(=O)NCc3nc(co3)C3=N[C@@](C)(CS3)C(=O)N[C@@H](C(C)C)C(=O)O2)OC1=O | 50 | 550 | 1300 | 150 |  |  | 910
